In PubChem BioAssay AID1963848 (Molecular Pharmacology Branch, DTP, NCI, 2024):

System: 379773-124-R-J2-PDC spheroid viability
Test: Anticancer human tumor 379773-124-R-J2-PDC patient-derived endometrial carcinoma cell line growth inhibition [POLQ]
Settings: spheroids with HUVEC and MSC; for IC50: curve of first compound; for viability, T/C: stronger effect = lower value
Outline: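 Three-cell-type spheroids modelling solid tumor plus stroma served as the readout system; POL inhibitors were tested individually and in combination, concentration ranges set by clinical Cmax where known.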

[1] = second compound 0.0316 µM, first compound 0.0316 µM
[2] = second compound 0.0316 µM, first compound 0.1 µM
[3] = second compound 0.0316 µM, first compound 0.316 µM
[4] = second compound 0.0316 µM, first compound 1 µM
[5] = second compound 0.1 µM, first compound 0.0316 µM
[6] = second compound 0.1 µM, first compound 0.1 µM
[7] = second compound 0.1 µM, first compound 0.316 µM
[8] = second compound 0.1 µM, first compound 1 µM
[9] = second compound 0.316 µM, first compound 0.0316 µM
[10] = second compound 0.316 µM, first compound 0.1 µM
[11] = second compound 0.316 µM, first compound 0.316 µM
[12] = second compound 0.316 µM, first compound 1 µM
[13] = second compound 1 µM, first compound 0.0316 µM
[14] = second compound 1 µM, first compound 0.1 µM
[15] = second compound 1 µM, first compound 0.316 µM
[16] = second compound 1 µM, first compound 1 µM
[17] = second compound 3.16 µM, first compound 0.0316 µM
[18] = second compound 3.16 µM, first compound 0.1 µM
[19] = second compound 3.16 µM, first compound 0.316 µM
[20] = second compound 3.16 µM, first compound 1 µM
[21] = second compound 10 µM, first compound 0.0316 µM
[22] = second compound 10 µM, first compound 0.1 µM
[23] = second compound 10 µM, first compound 0.316 µM
[24] = second compound 10 µM, first compound 1 µM
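Note: spheroids exposed to drugs for seven days before readout.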
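Throughout, for viability, T/C: percent viability relative to DMSO vehicle control taken as 100%.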

In the case of `COc1cccc2c1C(=O)c1c(O)c3c(c(O)c1C2=O)CC(O)(C(=O)CO)CC3OC1CC(N)C(O)C(C)O1` (centres undefined) + COC1C(OC(N)=O)C(O)C(Oc2ccc3c(O)c(NC(=O)c4ccc(O)c(CC=C(C)C)c4)c(=O)oc3c2C)OC1(C)C, the IC50 (second compound 0.0316 µM) is reported as 56.8 nM, the IC50 (second compound 0.1 µM) is reported as 64.4 nM and the IC50 (second compound 0.316 µM) is reported as 66 nM. The IC50 (second compound 1 µM) was 61.8 nM, the IC50 (second compound 3.16 µM) was 55.6 nM and the IC50 (second compound 10 µM) was 58.5 nM. The viability, T/C [1] was 77.5%, the viability, T/C [2] was 23.3% and the viability, T/C [3] was 6.61%. It also gave a viability, T/C [4] of 6.45%, a viability, T/C (second compound 0.0316 µM, first compound 3.16 µM) of 0.84% and a viability, T/C (second compound 0.0316 µM, first compound 10 µM) of 0.73%. For the same compound, the viability, T/C [5] was 85.7%, the viability, T/C [6] was 27.9% and the viability, T/C [7] was 6.63%. It also gave a viability, T/C [8] of 6.52%, a viability, T/C (second compound 0.1 µM, first compound 3.16 µM) of 1% and a viability, T/C (second compound 0.1 µM, first compound 10 µM) of 0.1%. The viability, T/C [9] was 83.4%, the viability, T/C [10] was 31.3% and the viability, T/C [11] was 8.56%. It also gave a viability, T/C [12] of 7.02%, a viability, T/C (second compound 0.316 µM, first compound 3.16 µM) of 1.52% and a viability, T/C (second compound 0.316 µM, first compound 10 µM) of 1.06%. It also gave a viability, T/C [13] of 82.8%, a viability, T/C [14] of 26.2% and a viability, T/C [15] of 8.01%. It also gave a viability, T/C [16] of 5.55%, a viability, T/C (second compound 1 µM, first compound 3.16 µM) of 1.26% and a viability, T/C (second compound 1 µM, first compound 10 µM) of 0.1%. For the same compound, the viability, T/C [17] was 75.7%, the viability, T/C [18] was 23.2% and the viability, T/C [19] was 6.39%. The viability, T/C [20] was 6.03%, the viability, T/C (second compound 3.16 µM, first compound 3.16 µM) was 1.65% and the viability, T/C (second compound 3.16 µM, first compound 10 µM) was 0.73%. It also gave a viability, T/C [21] of 84%, a viability, T/C [22] of 19.4% and a viability, T/C [23] of 7.68%. For the same compound, the viability, T/C [24] was 5.68%, the viability, T/C (second compound 10 µM, first compound 3.16 µM) was 0.98% and the viability, T/C (second compound 10 µM, first compound 10 µM) was 0.19%.
`C=CCn1c(=O)c2cnc(Nc3ccc(N4CCN(C)CC4)cc3)nc2n1-c1cccc(C(C)(C)O)n1` + Cc1cccc(N(C)C(=O)C2C(O)CCN2c2nc(C)cc(C(F)(F)F)c2C#N)c1 was tested, and the IC50 (second compound 0.0316 µM) was 457 nM, the IC50 (second compound 0.1 µM) was 441 nM and the IC50 (second compound 0.316 µM) was 411 nM. For the same compound, the IC50 (second compound 1 µM) was 416 nM, the IC50 (second compound 3.16 µM) was 443 nM and the IC50 (second compound 10 µM) was 406 nM. For the same compound, the viability, T/C (second compound 0.0316 µM, first compound 0.00316 µM) was 88.5%, the viability, T/C (second compound 0.0316 µM, first compound 0.01 µM) was 86% and the viability, T/C [1] was 85.2%. For the same compound, the viability, T/C [2] was 98%, the viability, T/C [3] was 72.2% and the viability, T/C [4] was 3.05%. It also gave a viability, T/C (second compound 0.1 µM, first compound 0.00316 µM) of 91.4%, a viability, T/C (second compound 0.1 µM, first compound 0.01 µM) of 98.3% and a viability, T/C [5] of 93.1%. The viability, T/C [6] was 98.1%, the viability, T/C [7] was 68.8% and the viability, T/C [8] was 3.55%. The viability, T/C (second compound 0.316 µM, first compound 0.00316 µM) was 100%, the viability, T/C (second compound 0.316 µM, first compound 0.01 µM) was 91.5% and the viability, T/C [9] was 96.4%. For the same compound, the viability, T/C [10] was 90.8%, the viability, T/C [11] was 63.6% and the viability, T/C [12] was 4%. The viability, T/C (second compound 1 µM, first compound 0.00316 µM) was 86.5%, the viability, T/C (second compound 1 µM, first compound 0.01 µM) was 96.7% and the viability, T/C [13] was 95.1%. It also gave a viability, T/C [14] of 95.3%, a viability, T/C [15] of 64.9% and a viability, T/C [16] of 2.86%. The viability, T/C (second compound 3.16 µM, first compound 0.00316 µM) was 98.2%, the viability, T/C (second compound 3.16 µM, first compound 0.01 µM) was 90.2% and the viability, T/C [17] was 88.2%. For the same compound, the viability, T/C [18] was 94%, the viability, T/C [19] was 69.5% and the viability, T/C [20] was 2.86%. For the same compound, the viability, T/C (second compound 10 µM, first compound 0.00316 µM) was 87.5%, the viability, T/C (second compound 10 µM, first compound 0.01 µM) was 86.1% and the viability, T/C [21] was 85.9%. For the same compound, the viability, T/C [22] was 89.5%, the viability, T/C [23] was 63% and the viability, T/C [24] was 3.05%.
